Consider 3 compounds from patent US6046238A, “Method for treating or preventing the spread of acne vulgaris” (TriStrata, Inc., priority 1999, dated 2000).

Holding throughout (type): cell-based
The test system of one test is Escherichia coli. In words: MIC Agar Dilution Test, Escherichia coli. An excerpt:
(§1) The following strains of microorganisms were used in Minimum Inhibitory Concentration (MIC) tests for phenyl 2-acetoxyethanoic acid in this example and for benzoyl peroxide, chlorhexidine gluconate and triclosan in the following examples. In total, five strains were used for S. aureus, five strains were used for S. epidermidis, two strains were used for M. sedentarius, three strains were used for M. luteus, two strains were used for B. epidermis, three strains were used for C. minutissium, one strain was used for S. marcescens, three strains were used for P. aeruginosa, four strains were used for E. coli, and thirty-two strains were used for P. acnes.
(§2) Antimicrobial effects were determined based on MIC Agar Dilution Test utilizing Trypticase Soy Agar II (BBL) incorporation plates with and without 10% intralipid (Kabi Pharmacia Inc.). Initially, phenyl 2-acetoxyethanoic acid was prepared as a 2 mg/ml (0.2%) solution in water. This solution with serial dilution was incorporated into the test agar plates. The MIC test gave similar results when the same species but a different strain was used.
(§3) Under the same test conditions described in Example 1, benzoyl peroxide was prepared as a 2.5 mg/ml (0.25%) solution in water. This solution with serial dilution was incorporated into the test agar plates. Typical test results are shown as follows.
(§4) Under the same test conditions described in Example 1, chlorhexidine gluconate was prepared as a 2 mg/ml (0.2%) solution in water. This solution with serial dilution was incorporated into the test agar plates. Typical test results are shown as follows.
(§5) Under the same test conditions described in Example 1, triclosan was prepared as a 10 mg/ml (1%) solution in water. This solution with serial dilution was incorporated into the test agar plates. Typical test results are shown as follows.
(§6) Ten different species of bacteria were used in Minimum Inhibitory Concentration (MIC) tests. The bacteria include S. aureus, S. epidermidis,M. sedentarius, M. luteus, B. epidermis, C. minutissium, S. marcescens, P. aeruginosa, E. coli, and P. acnes. In addition various sources and strains of these bacteria were also included in the tests, and up to 32 different strains of P. acnes were used.
(§7) The test substance selected from phenyl 2-acetoxyethanoic acid, benzoyl peroxide, chlorhexidine gluconate and triclosan was dissolved in water, and the solution with serial dilution was incorporated into the test agar plates. The plates containing different concentrations of test substance were inoculated with a strain of bacterium. MIC is defined as the lowest concentration of the test substance in the plate in which there is no growth of the microorganism.
A general note: In agar dilution, organisms are placed on agar that contains the substance at set levels.

A further test relates to Micrococcus luteus. Kind of test: MIC Agar Dilution Test, Micrococcus luteus.
From the text: as §1, §2, §3, §4, §5, §6, §7

The next test relates to Micrococcus sedentarius. Kind of test: MIC Agar Dilution Test, Micrococcus sedentarius. To be noted: Kytococcus sedentarius.
From the text: as §1, §2, §3, §4, §5, §6, §7

Test [1] deals with Staphylococcus epidermidis. In words: MIC Agar Dilution Test, Staphylococcus epidermidis.
From the text: as §1, §2, §3, §4, §5, §6, §7

Test [2] has as its system ten different species of bacteria. In words: MIC Agar Dilution Test, panel of ten bacteria.
From the text: as §1, §2, §3, §4, §5
In order to determine the antimicrobial effect of an aryl 2-acetoxyethanoicacid, a standard test method of Minimum Inhibitory Concentration (MIC) against the growth of 10 bacteria was used. To determine a prophylactic effect against the development of, as well as a topical effect in the treatment of, body foul door, eleven human subjects participated in this study. More than twenty human subjects participated in a study to determine whether the compositions containing an aryl 2-acetoxyethanoic acid were therapeutically effective for topical treatment of folliculitis and other skin lesions, nail infections and mucosal infections caused by microbial infections. Scientific and test results are overviewed as follows.
as §6, §7

A further test deals with Brevibacterium epidermis. Kind of test: MIC Agar Dilution Test, Brevibacterium epidermis.
From the text: as §1, §2, §3, §4, §5, §6, §7

The test system of another test is Pseudomonas aeruginosa. In words: MIC Agar Dilution Test, Pseudomonas aeruginosa.
From the text: as §1, §2, §3, §4, §5, §6, §7

Another test concerns Propionibacterium acnes. Kind of test: MIC Agar Dilution Test, Propionibacterium acnes. The note with it: Cutibacterium acnes.
From the text: as §1, §2, §3, §4, §5, §6, §7

The subject of test [3] is Corynebacterium minutissium. Kind of test: MIC Agar Dilution Test, Corynebacterium minutissium.
From the text: as §1, §2, §3, §4, §5, §6, §7

Another test deals with Serratia marcescens. Kind of test: MIC Agar Dilution Test, Serratia marcescens.
From the text: as §1, §2, §3, §4, §5, §6, §7

Another test deals with Staphylococcus aureus. Kind of test: MIC Agar Dilution Test, Staphylococcus aureus.
From the text: as §1, §2, §3, §4, §5, §6, §7

[4] abbreviates: E. coli, 10% intralipid, read-out: MIC Lipid.
Setting [5] is: E. coli, no lipid, read-out: MIC No Lipid.
[6] abbreviates: M. luteus, 10% intralipid, read-out: MIC Lipid.
Setting [7] is: M. luteus, no lipid, read-out: MIC No Lipid.
The mark [8] stands for this setting: M. sedentarius, 10% intralipid, read-out: MIC Lipid.
[9] abbreviates: M. sedentarius, no lipid, read-out: MIC No Lipid.
The mark [10] stands for this setting: S. epidermidis, 10% intralipid, read-out: MIC Lipid.
The mark [11] stands for this setting: S. epidermidis, no lipid, read-out: MIC No Lipid.
The mark [12] stands for this setting: in the absence of lipid materials, triclosan: excluding S. marcescens and P. aeruginosa.
Setting [13] is: in the presence of 10% lipid materials, benzoyl peroxide: excluding S. marcescens and P. aeruginosa.
Setting [14] is: B. epidermis, 10% intralipid, read-out: MIC Lipid.
[15] abbreviates: B. epidermis, no lipid, read-out: MIC No Lipid.
[16] abbreviates: P. aeruginosa, 10% intralipid, read-out: MIC Lipid.
The mark [17] stands for this setting: P. aeruginosa, no lipid, read-out: MIC No Lipid.
Setting [18] is: P. acnes, 10% intralipid, read-out: MIC Lipid.
Setting [19] is: P. acnes, no lipid, read-out: MIC No Lipid.
Where [20] appears, read: C. minutissium, 10% intralipid, read-out: MIC Lipid.
Where [21] appears, read: C. minutissium, no lipid, read-out: MIC No Lipid.
The mark [22] stands for this setting: S. marcescens, 10% intralipid, read-out: MIC Lipid.
The mark [23] stands for this setting: S. marcescens, no lipid, read-out: MIC No Lipid.
Setting [24] is: S. aureus, 10% intralipid, read-out: MIC Lipid.
Where [25] appears, read: S. aureus, no lipid, read-out: MIC No Lipid.

In brackets after ≈: the same amount, converted by molar mass. Entries after “also recorded” stand apart in the source; their conditions may differ. Where two headings read alike, the source gives them in different places.

As for `O=C(OOC(=O)c1ccccc1)c1ccccc1` [benzoyl peroxide], the MIC with Escherichia coli (setting [4]) was found to be 1250 µg/mL (≈ 5.16 mM); in the test on Escherichia coli (setting [5]) it was 2500 µg/mL (≈ 10.3 mM); with Micrococcus luteus (setting [6]), 650 µg/mL (≈ 2.68 mM); in the test with Micrococcus luteus (setting [7]), 2500 µg/mL (≈ 10.3 mM); in the test on Micrococcus luteus (in the presence of 10% lipid materials (printed M. lutens), read-out: concentration showing inhibitory effects against M. luteus) it was 625 µg/mL; with Micrococcus sedentarius (setting [8]) it was 650 µg/mL (≈ 2.68 mM). For the same compound, the MIC was 2500 µg/mL (≈ 10.3 mM) in the test on Micrococcus sedentarius (setting [9]); 625 µg/mL with Micrococcus sedentarius (in the presence of 10% lipid materials, read-out: concentration showing inhibitory effects against M. sedentarius); 1250 µg/mL (≈ 5.16 mM) in test [1] (setting [10]); 2500 µg/mL (≈ 10.3 mM) in test [1] (setting [11]); 1250 µg/mL (≈ 5.16 mM) in the test on Brevibacterium epidermis (setting [14]); 2500 µg/mL (≈ 10.3 mM) in the test on Brevibacterium epidermis (setting [15]). Further, the MIC in the test with Pseudomonas aeruginosa (setting [16]) is 1250 µg/mL (≈ 5.16 mM); in the test with Pseudomonas aeruginosa (setting [17]) it was 72500 µg/mL (≈ 299 mM); in the test with Propionibacterium acnes (setting [18]) it was 625 µg/mL (≈ 2.58 mM); in the test on Propionibacterium acnes (setting [19]), 2500 µg/mL (≈ 10.3 mM); in the test on Propionibacterium acnes (in the presence of 10% lipid materials, read-out: concentration effective against P. acnes), 625 µg/mL; in test [3] (setting [20]) it was 1250 µg/mL (≈ 5.16 mM). Further, the MIC in [3] (setting [21]) amounted to 2500 µg/mL (≈ 10.3 mM); with Serratia marcescens (setting [22]), 1250 µg/mL (≈ 5.16 mM); with Serratia marcescens (setting [23]), 72500 µg/mL (≈ 299 mM); in the test on Staphylococcus aureus (setting [24]), 1250 µg/mL (≈ 5.16 mM); in the test with Staphylococcus aureus (setting [25]), 2500 µg/mL (≈ 10.3 mM). The “effect against the growth of the bacteria” value (“effect against the growth” for short) is listed as “not effective against the growth of all the bacteria tested” in test [2] (setting [12]) and “moderately effective” in test [2] (setting [13]).

On to `N=C(NCCCCCCNC(=N)NC(=N)Nc1ccc(Cl)cc1)NC(=N)Nc1ccc(Cl)cc1` [chlorhexidine gluconate], for which the MIC in the test on Escherichia coli (setting [4]) was more than 2000 µg/mL; in the test on Escherichia coli (setting [5]), 250 µg/mL; in the test on Micrococcus luteus (setting [6]), more than 2000 µg/mL; with Micrococcus luteus (setting [7]), 125 µg/mL; in the test on Micrococcus sedentarius (setting [8]), more than 2000 µg/mL; with Micrococcus sedentarius (setting [9]), 125 µg/mL. For the same compound, the MIC in [1] (setting [10]) was more than 2000 µg/mL; in test [1] (setting [11]), 125 µg/mL; in the test on Brevibacterium epidermis (setting [14]), more than 2000 µg/mL; with Brevibacterium epidermis (setting [15]), 250 µg/mL; with Pseudomonas aeruginosa (setting [16]) it was more than 2000 µg/mL; in the test with Pseudomonas aeruginosa (setting [17]) it was 1000 µg/mL. The MIC was more than 2000 µg/mL in the test on Propionibacterium acnes (setting [18]); 62.5 µg/mL with Propionibacterium acnes (setting [19]); more than 2000 µg/mL in [3] (setting [20]); 125 µg/mL in test [3] (setting [21]); more than 2000 µg/mL in the test with Serratia marcescens (setting [22]); 1000 µg/mL in the test on Serratia marcescens (setting [23]). The figures for the MIC with Staphylococcus aureus (setting [24]) and with Staphylococcus aureus (setting [25]) were more than 2000 µg/mL and 125 µg/mL, respectively. Moreover, the “effect against the growth” value in test [2] (setting [12]) is reported as “effective against various bacteria”; in test [2] (setting [13]), “totally ineffective; also recorded: not effective against the growth of all the bacteria tested; also recorded: ineffective against most microorganisms”.

For `Oc1cc(Cl)ccc1Oc1ccc(Cl)cc1Cl` [triclosan], the MIC is more than 10000 µg/mL in the test with Escherichia coli (read-out: MIC Lipid); 156 µg/mL (≈ 0.539 mM) in the test with Escherichia coli (read-out: MIC No Lipid); more than 10000 µg/mL in the test with Micrococcus luteus (read-out: MIC Lipid); 156 µg/mL (≈ 0.539 mM) in the test with Micrococcus luteus (read-out: MIC No Lipid); more than 10000 µg/mL in the test with Micrococcus sedentarius (read-out: MIC Lipid); 156 µg/mL (≈ 0.539 mM) in the test with Micrococcus sedentarius (read-out: MIC No Lipid). The MIC is 5000 µg/mL (≈ 17.3 mM) in test [1] (read-out: MIC Lipid); 156 µg/mL (≈ 0.539 mM) in test [1] (read-out: MIC No Lipid); 156 µg/mL (≈ 0.539 mM) in test [2] (read-out: concentration found effective against the bacteria tested); more than 10000 µg/mL with Brevibacterium epidermis (read-out: MIC Lipid); 156 µg/mL (≈ 0.539 mM) in the test with Brevibacterium epidermis (read-out: MIC No Lipid); more than 10000 µg/mL in the test with Pseudomonas aeruginosa (read-out: MIC Lipid). The MIC with Pseudomonas aeruginosa (read-out: MIC No Lipid) is more than 10000 µg/mL; in the test on Propionibacterium acnes (read-out: MIC Lipid), more than 10000 µg/mL; in the test on Propionibacterium acnes (read-out: MIC No Lipid) it was 156 µg/mL (≈ 0.539 mM); in [3] (read-out: MIC Lipid) it was more than 10000 µg/mL; in test [3] (read-out: MIC No Lipid), 156 µg/mL (≈ 0.539 mM); in the test on Serratia marcescens (read-out: MIC Lipid) it was more than 10000 µg/mL. In addition, the MIC in the test on Serratia marcescens (read-out: MIC No Lipid) is more than 10000 µg/mL; with Staphylococcus aureus (read-out: MIC Lipid) it was more than 10000 µg/mL; in the test on Staphylococcus aureus (read-out: MIC No Lipid) it was 156 µg/mL (≈ 0.539 mM). The “effect against the growth” value in [2] (setting [12]) was “effective against various bacteria”; in test [2] (setting [13]) it was “ineffective; also recorded: not effective against the growth of all the bacteria tested; also recorded: ineffective against most microorganisms”.
